For this assay, the target named is T1, HEK cells stably transfected with tetracycline inducible hNR1 and hNR2A (Homo sapiens, UniProt Q05586+Q12879).
T1 construct: expressed in transfected cells; host or cells: HEK cells, stably transfected, tetracycline/doxycycline inducible
Kind of assay: Assay 1: Cell-Based Assay, cytosolic calcium response to positive allosteric modulators (with 30 μM glycine and 300 nM L-glutamate, EC30). The following applies: Table 3; cytosolic calcium response, with 30 μM glycine and 300 nM L-glutamate (EC30); — = no plateau was reached. In a few lines:
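Cells induced 24 h with 7.5 μg mL^−1 doxycycline plus 500 μM (+)-ketamine, loaded 60 min at 37 °C with calcium dye in Mg-free HBSS (1.8 mM Ca, probenecid, 10 μM (+)-ketamine, pH 7.15). Peak RFU over 5 min after compound addition, scaled to 100 μM L-glutamate (100%) and 0 μM (0%); four-parameter Hill fit for EC50, max % if no plateau.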

T1 sequence (Q12879 23-1464, other chains not shown): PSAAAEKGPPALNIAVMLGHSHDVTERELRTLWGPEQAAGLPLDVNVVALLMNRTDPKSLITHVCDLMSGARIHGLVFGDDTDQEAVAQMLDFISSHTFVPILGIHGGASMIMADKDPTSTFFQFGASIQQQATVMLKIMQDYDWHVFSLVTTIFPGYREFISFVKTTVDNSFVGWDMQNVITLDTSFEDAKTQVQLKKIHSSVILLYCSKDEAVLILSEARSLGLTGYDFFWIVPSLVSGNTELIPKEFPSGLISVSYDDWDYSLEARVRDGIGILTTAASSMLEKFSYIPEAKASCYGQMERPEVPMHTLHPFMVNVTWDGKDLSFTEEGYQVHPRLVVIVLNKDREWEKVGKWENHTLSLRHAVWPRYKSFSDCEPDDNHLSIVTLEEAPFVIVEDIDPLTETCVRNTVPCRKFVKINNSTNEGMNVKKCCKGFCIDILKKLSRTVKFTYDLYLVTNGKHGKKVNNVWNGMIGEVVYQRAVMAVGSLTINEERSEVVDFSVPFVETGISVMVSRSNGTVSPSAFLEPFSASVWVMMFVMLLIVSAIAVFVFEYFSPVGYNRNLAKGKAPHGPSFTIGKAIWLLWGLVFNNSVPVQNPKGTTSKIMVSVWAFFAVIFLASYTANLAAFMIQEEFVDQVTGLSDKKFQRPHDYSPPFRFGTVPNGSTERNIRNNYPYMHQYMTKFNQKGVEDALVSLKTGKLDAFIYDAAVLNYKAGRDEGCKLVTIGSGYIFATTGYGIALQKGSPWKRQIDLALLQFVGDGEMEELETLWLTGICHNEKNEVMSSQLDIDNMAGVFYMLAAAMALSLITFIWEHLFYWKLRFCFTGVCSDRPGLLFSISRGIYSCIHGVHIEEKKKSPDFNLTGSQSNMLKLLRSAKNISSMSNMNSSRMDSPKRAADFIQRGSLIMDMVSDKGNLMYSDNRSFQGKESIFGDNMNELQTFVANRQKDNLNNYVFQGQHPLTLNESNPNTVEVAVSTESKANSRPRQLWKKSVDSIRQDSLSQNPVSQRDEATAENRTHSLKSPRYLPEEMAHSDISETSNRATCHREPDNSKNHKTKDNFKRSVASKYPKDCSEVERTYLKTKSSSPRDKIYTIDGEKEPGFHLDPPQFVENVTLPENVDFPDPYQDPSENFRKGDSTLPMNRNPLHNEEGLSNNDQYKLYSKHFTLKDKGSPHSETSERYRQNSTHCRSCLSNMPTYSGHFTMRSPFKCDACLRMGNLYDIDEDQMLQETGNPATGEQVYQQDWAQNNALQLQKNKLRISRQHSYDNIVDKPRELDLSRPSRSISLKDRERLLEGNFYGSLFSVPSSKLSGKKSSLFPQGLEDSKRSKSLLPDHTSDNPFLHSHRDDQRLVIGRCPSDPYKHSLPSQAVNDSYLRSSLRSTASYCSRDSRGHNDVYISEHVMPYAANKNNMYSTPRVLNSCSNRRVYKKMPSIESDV

For orientation: EC50 means the concentration needed to bring the measured effect to its halfway point. In the case of `CCNC(=O)c1c(Cl)sc2nc(Cc3cccc(C#N)c3F)cc(=O)n12` [compound 69, 2-chloro-7-[(3-cyano-2-fluoro-phenyl)methyl]-N-ethyl-5-oxo-thiazolo[3,2-a]pyrimidine-3-carboxamide], the EC50 stood at 11.2 µM.

Consider `CNC(=O)c1c(C(F)(F)F)sc2nc(Cc3cccc(C#N)c3F)cc(=O)n12` [compound 70, 7-[(3-cyano-2-fluoro-phenyl)methyl]-N-methyl-5-oxo-2-(trifluoromethyl)thiazolo[3,2-a]pyrimidine-3-carboxamide], for which the concentration for a half-maximal effect (EC50) is 2.92 µM.

With `CCNC(=O)Cc1c(C)sc2nc(Cc3cccc(C(F)(F)F)c3F)cc(=O)n12` [compound 71, N-ethyl-2-[7-[[2-fluoro-3-(trifluoromethyl)phenyl]methyl]-2-methyl-5-oxo-thiazolo[3,2-a]pyrimidin-3-yl]acetamide], the EC50 turned out to be 1.37 µM.

Turning to `CNC(=O)c1c(C)sc2nc(Cn3cc(C(F)(F)F)cn3)cc(=O)n12` [compound 72, N,2-dimethyl-5-oxo-7-[[4-(trifluoromethyl)pyrazol-1-yl]methyl]thiazolo[3,2-a]pyrimidine-3-carboxamide], the concentration giving a half-maximal response (EC50) came to 62.6 µM.

With `Cc1sc2nc(Oc3cccc(C(F)(F)F)c3F)cc(=O)n2c1C1CC1` [compound 73, 3-cyclopropyl-7-[2-fluoro-3-(trifluoromethyl)phenoxy]-2-methyl-thiazolo[3,2-a]pyrimidin-5-one], the EC50 was 40.1 µM.

For the molecule `N#Cc1cccc(Cc2cc(=O)n3c(C4CC4C(F)(F)F)c(Cl)sc3n2)c1F` (stereo not shown) [compound 74, 3-[[2-chloro-5-oxo-3-[2-(trifluoromethyl)cyclopropyl]thiazolo[3,2-a]pyrimidin-7-yl]methyl]-2-fluoro-benzonitrile], the EC50 was found to be 0.507 µM.

Regarding `CNC(=O)Cc1c(C(F)(F)F)sc2nc(Cc3cccc(C(F)(F)F)c3F)cc(=O)n12` [compound 75, 2-[7-[[2-fluoro-3-(trifluoromethyl)phenyl]methyl]-5-oxo-2-(trifluoromethyl)thiazolo[3,2-a]pyrimidin-3-yl]-N-methyl-acetamide], the EC50 stood at 28.9 µM.

On to `CCNC(=O)c1c(C)sc2nc(Cn3nc(C(F)(F)F)cc3C3CC3)cc(=O)n12` [compound 76, 7-[[5-cyclopropyl-3-(trifluoromethyl)pyrazol-1-yl]methyl]-N-ethyl-2-methyl-5-oxo-thiazolo[3,2-a]pyrimidine-3-carboxamide], for which the concentration giving a half-maximal response (EC50) is 0.436 µM.

As for `Cc1sc2nc(Oc3cccc(C#N)c3F)cc(=O)n2c1C1CC1C(F)(F)F` (stereo not shown) [compound 77, 2-fluoro-3-[2-methyl-5-oxo-3-[2-(trifluoromethyl)cyclopropyl]thiazolo[3,2-a]pyrimidin-7-yl]oxy-benzonitrile], the EC50 was determined as 0.271 µM.

Turning to `CNC(=O)Cc1c(C(F)(F)F)sc2nc(Cn3nc(C(F)(F)F)cc3C3CC3)cc(=O)n12` [compound 78, 2-[7-[[5-cyclopropyl-3-(trifluoromethyl)pyrazol-1-yl]methyl]-5-oxo-2-(trifluoromethyl)thiazolo[3,2-a]pyrimidin-3-yl]-N-methyl-acetamide], the concentration for a half-maximal effect (EC50) was 2.96 µM.

Turning to `CNC(=O)Cc1c(C(F)(F)F)sc2nc(Cn3nc(C4CC4)cc3C(F)(F)F)cc(=O)n12` [compound 79, 2-[7-[[3-cyclopropyl-5-(trifluoromethyl)pyrazol-1-yl]methyl]-5-oxo-2-(trifluoromethyl)thiazolo[3,2-a]pyrimidin-3-yl]-N-methyl-acetamide], the EC50 turned out to be 14.3 µM.

In the case of `Cc1sc2nc(Cc3cccc(C(F)(F)F)c3F)cc(=O)n2c1Cc1ncc[nH]1` [compound 81, 7-[[2-fluoro-3-(trifluoromethyl)phenyl]methyl]-3-(1H-imidazol-2-ylmethyl)-2-methyl-thiazolo[3,2-a]pyrimidin-5-one], the EC50 turned out to be 52 µM.

For the molecule `CCNC(=O)c1c(C)sc2nc(CN(CC)c3ccc(F)cc3)cc(=O)n12` [compound 82, N-ethyl-7-[(N-ethyl-4-fluoro-anilino)methyl]-2-methyl-5-oxo-thiazolo[3,2-a]pyrimidine-3-carboxamide], the half-maximal effective concentration (EC50) was 0.0787 µM.

As to `CCNC(=O)c1c(C(F)(F)F)sc2nc(CN(CC)c3ccc(F)cc3)cc(=O)n12` [compound 83, N-ethyl-7-[(N-ethyl-4-fluoro-anilino)methyl]-5-oxo-2-(trifluoromethyl)thiazolo[3,2-a]pyrimidine-3-carboxamide], the EC50 is 0.154 µM.

Turning to `CC1CC1c1c(C(F)(F)F)sc2nc(Cc3cccc(C#N)c3F)cc(=O)n12` (stereo not shown) [compound 84, 2-fluoro-3-[[3-(2-methylcyclopropyl)-5-oxo-2-(trifluoromethyl)thiazolo[3,2-a]pyrimidin-7-yl]methyl]benzonitrile], the EC50 is 11.2 µM.

Take `CC1CC1c1c(Cl)sc2nc(Cc3cccc(C#N)c3F)cc(=O)n12` (stereo not shown) [compound 85, 3-[[2-chloro-3-(2-methylcyclopropyl)-5-oxo-thiazolo[3,2-a]pyrimidin-7-yl]methyl]-2-fluoro-benzonitrile]: the EC50 was 2.39 µM.

On to `Cc1sc2nc(Oc3cccc(C(F)(F)F)c3F)cc(=O)n2c1C1CC1C` (stereo not shown) [compound 86, 7-[2-fluoro-3-(trifluoromethyl)phenoxy]-2-methyl-3-(2-methylcyclopropyl)thiazolo[3,2-a]pyrimidin-5-one], for which the EC50 worked out at 10.5 µM.

Consider `CCNC(=O)c1c(C(C)C)sc2nc(Cc3cccc(C(F)(F)F)c3F)cc(=O)n12` [compound 87, N-ethyl-7-[[2-fluoro-3-(trifluoromethyl)phenyl]methyl]-2-isopropyl-5-oxo-thiazolo[3,2-a]pyrimidine-3-carboxamide], for which the half-maximal effective concentration (EC50) worked out at 42 µM.

In the case of `N#Cc1cccc(Cc2cc(=O)n3c(C4CC4C(F)(F)F)c(C(F)(F)F)sc3n2)c1F` (stereo not shown) [compound 88, 2-fluoro-3-[[5-oxo-2-(trifluoromethyl)-3-[2-(trifluoromethyl)cyclopropyl]thiazolo[3,2-a]pyrimidin-7-yl]methyl]benzonitrile], the half-maximal effective concentration (EC50) came to 3.7 µM.

For the molecule `O=c1cc(Cn2nc(C(F)(F)F)cc2Cl)nc2sc3c(n12)CCC3` [compound 89], the EC50 stood at 9.04 µM.

For `O=c1cc(Cn2nc(Cl)cc2C(F)(F)F)nc2sc3c(n12)CCC3` [compound 90], the half-maximal effective concentration (EC50) is 1.22 µM.

For `CCNC(=O)c1c(OC)sc2nc(Cc3cccc(C(F)(F)F)c3F)cc(=O)n12` [compound 91, N-Ethyl-7-[[2-fluoro-3-(trifluoromethyl)phenyl]methyl]-2-methoxy-5-oxo-thiazolo[3,2-a]pyrimidine-3-carboxamide], the EC50 amounted to 1.03 µM.

Take `O=c1cc(Cc2cccc(C(F)(F)F)c2F)nc2sc3c(n12)C(CO)CC3` (stereo not shown) [compound 92]: the concentration for a half-maximal effect (EC50) amounted to 47.1 µM.

On to `CCc1sc2nc(Cc3cccc(C(F)(F)F)c3F)cc(=O)n2c1C(=O)NC` [compound 93, 2-ethyl-7-[[2-fluoro-3-(trifluoromethyl)phenyl]methyl]-N-methyl-5-oxo-thiazolo[3,2-a]pyrimidine-3-carboxamide], for which the 50% effective concentration (EC50) came to 1.83 µM.

As to `N#CC1CC1c1c(C(F)(F)F)sc2nc(Cc3cccc(C(F)(F)F)c3F)cc(=O)n12` (stereo not shown) [compound 94, 2-[7-[[2-fluoro-3-(trifluoromethyl)phenyl]methyl]-5-oxo-2-(trifluoromethyl)thiazolo[3,2-a]pyrimidin-3-yl]cyclopropanecarbonitrile], the concentration for a half-maximal effect (EC50) was 2.08 µM.

As for `O=c1cc(Cn2nc(C(F)(F)F)cc2C2CC2)nc2sc3c(n12)C(CO)CC3` (stereo not shown) [compound 95], the EC50 came out at 9.2 µM.

Regarding `CNC(=O)c1c(C)sc2nc(Cn3nc(C(F)(F)F)cc3Cl)cc(=O)n12` [compound 96, 7-[[5-chloro-3-(trifluoromethyl)pyrazol-1-yl]methyl]-N,2-dimethyl-5-oxo-thiazolo[3,2-a]pyrimidine-3-carboxamide], the EC50 was found to be 1.21 µM.

For `CNC(=O)c1c(C)sc2nc(Cn3nc(Cl)cc3C(F)(F)F)cc(=O)n12` [compound 97, 7-[[3-chloro-5-(trifluoromethyl)pyrazol-1-yl]methyl]-N,2-dimethyl-5-oxo-thiazolo[3,2-a]pyrimidine-3-carboxamide], the 50% effective concentration (EC50) was found to be 5.11 µM.

For `CNC(=O)Cc1c(C)sc2nc(Cn3nc(C(F)(F)F)cc3Cl)cc(=O)n12` [compound 98, 2-[7-[[5-chloro-3-(trifluoromethyl)pyrazol-1-yl]methyl]-2-methyl-5-oxo-thiazolo[3,2-a]pyrimidin-3-yl]-N-methyl-acetamide], the 50% effective concentration (EC50) came out at 1.57 µM.

For the molecule `CNC(=O)Cc1c(C)sc2nc(Cn3nc(Cl)cc3C(F)(F)F)cc(=O)n12` [compound 99, 2-[7-[[3-chloro-5-(trifluoromethyl)pyrazol-1-yl]methyl]-2-methyl-5-oxo-thiazolo[3,2-a]pyrimidin-3-yl]-N-methyl-acetamide], the EC50 was determined as 3.69 µM.

For the molecule `Cc1sc2nc(Cc3cccc(C(F)(F)F)c3F)cc(=O)n2c1C1CC1O` (stereo not shown) [compound 100, 7-[[2-fluoro-3-(trifluoromethyl)phenyl]methyl]-3-(2-hydroxycyclopropyl)-2-methyl-thiazolo[3,2-a]pyrimidin-5-one], the EC50 came to 11.6 µM.

In the case of `Cc1sc2nc(Oc3cccc(C(F)(F)F)c3F)cc(=O)n2c1C1CC1C#N` (stereo not shown) [compound 101, 2-[7-[2-fluoro-3-(trifluoromethyl)phenoxy]-2-methyl-5-oxo-thiazolo[3,2-a]pyrimidin-3-yl]cyclopropanecarbonitrile], the concentration giving a half-maximal response (EC50) was 3.71 µM.

On to `Cc1sc2nc(Cn3nc(C(F)(F)F)cc3Cl)cc(=O)n2c1C1CC1CO` (stereo not shown) [compound 102, 7-[[5-chloro-3-(trifluoromethyl)pyrazol-1-yl]methyl]-3-[2-(hydroxymethyl)cyclopropyl]-2-methyl-thiazolo[3,2-a]pyrimidin-5-one], for which the half-maximal effective concentration (EC50) was determined as 0.0547 µM.

For `Cc1sc2nc(Cn3nc(Cl)cc3C(F)(F)F)cc(=O)n2c1C1CC1CO` (stereo not shown) [compound 103, 7-[[3-chloro-5-(trifluoromethyl)pyrazol-1-yl]methyl]-3-[2-(hydroxymethyl)cyclopropyl]-2-methyl-thiazolo[3,2-a]pyrimidin-5-one], the EC50 stood at 0.251 µM.
